In patent US9637457B2, “Process for the stereoselective preparation of a pyrazole-carboxamide” (Syngenta Participations AG, priority 2014, dated 2017):
Where two headings read alike, the source gives them in different places.

Experiments:
fungi [1] = conditions: racemic compound, described in WO 2010/063700; cited from earlier work
fungi [2] = experiment: fungicidal activity (general statement, no test described); conditions: enantiomer Ib compared with enantiomer Ia / racemate

Row | SMILES | fungicidal activity (fungi [1]) | fungicidal activity (fungi [2])
1 | CON(C(=O)c1cn(C)nc1C(F)F)C(C)Cc1c(Cl)cc(Cl)cc1Cl (racemic) [3-(difluoromethyl)-N-methoxy-1-methyl-N-[1-methyl-2-(2,4,6-trichlorophenyl)ethyl]pyrazole-4-carboxamide] | excellent fungicidal activity | –
2 | CON(C(=O)c1cn(C)nc1C(F)F)[C@@H](C)Cc1c(Cl)cc(Cl)cc1Cl [Ib, 3-(difluoromethyl)-N-methoxy-1-methyl-N-[(1S)-1-methyl-2-(2,4,6-trichlorophenyl)ethyl]pyrazole-4-carboxamide] | – | more prominent fungicidal activity
